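How tested: cells in 96-well plates exposed to compound for 48 hours at five concentrations. Abbreviation: GI50, concentration required for 50% inhibition of growth. Definition used: TGI = concentration required for complete inhibition of growth.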

This is an account of results in PubChem BioAssay (NCI).

The test system of the assay is MDA-MB-468 breast. In words: NCI anticancer screen, dose series, 48 h.
In the case of `COC(=O)C[Se]C(=O)Cc1c(C)n(C(=O)c2ccc(Cl)cc2)c2ccc(OC)cc12`, the GI50 was 1470 nM and the TGI was 4 µM.

On to `COC1/C=C/OC2(C)Oc3c(C)c(O)c4c(O)c(c(C=NOC(c5ccccc5)c5ccccc5)c(O)c4c3C2=O)NC(=O)/C(C)=C/C=C/C(C)C(O)C(C)C(O)C(C)C(OC(C)=O)C1C` (stereo unspecified), for which the GI50 was 1050 nM and the TGI worked out at 2.78 µM.

Take `Cc1nc2cc(Nc3nc(Nc4ccc(F)cc4)nc(N4CCCC4)n3)ccc2n1Cc1ccccc1`: the GI50 is 1610 nM and the TGI was 3.48 µM.

Regarding `Cc1ccc(S(=O)(=O)NCCCNc2nc(Nc3ccc(N4CCN(C)CC4)cc3)nc3ccsc23)cc1`, the GI50 is 7430 nM and the TGI came to 20.6 µM.

For the compound `CNC(=O)c1cc(Oc2ccc3nc(NC(=O)Nc4cc(C(F)(F)F)cc(C(F)(F)F)c4)sc3c2)ccn1`, the GI50 was 399 nM and the TGI is 1.75 µM.

On to `O=C(Nc1nc(-c2ccccc2Cl)cs1)c1cc(-c2ccc(Cl)cc2)nc2ccc(Cl)cc12`, for which the GI50 is 5600 nM and the TGI was 79.6 µM.

Consider `Oc1[nH]c2ccccc2c1/C=c1/ccc2c(c1)N=C(c1cc(F)cc(F)c1)N=2`, for which the GI50 was 2620 nM and the TGI was determined as 8.64 µM.

Turning to `Nc1nc(Cl)nc2c1ncn2C1OC(CO)C(O)C1O` (stereo unspecified), the GI50 is above 100000 nM and the TGI was above 100 µM.

Consider `O=[N+]([O-])c1cccc([I+]c2ccccc2)c1`, for which the GI50 was 2100 nM and the TGI was found to be 17.4 µM.

Consider `O=C(NC(Cc1ccccc1)C(=O)CCl)OCc1ccccc1` (stereo unspecified), for which the GI50 is 3690 nM and the TGI was 15.4 µM.

As to `N/C(=N\C(N)=N\c1nc2ccccc2s1)c1ccnc(Br)c1`, the GI50 was 17500 nM and the TGI is above 100 µM.

Regarding `CCOC(=O)Nc1cc(-c2ccc(C)c(NS(C)(=O)=O)c2)nn2c(C)nnc12`, the GI50 is 557 nM and the TGI turned out to be 4.21 µM.

With `O=C1Nc2c(ccc(Cl)c2Cl)/C1=C\c1cc(C(F)(F)F)cc(C(F)(F)F)c1`, the GI50 is 1510 nM and the TGI was 5.6 µM.

Take `COC1=CC(c2ccc[nH]2)=N/C1=C\c1[nH]c(C)c(C)c1CCC(=O)OCc1ccccc1`: the GI50 is 1510 nM and the TGI came to 5.31 µM.

On to `Cc1ccnc(NC(c2ccccc2)c2ccc3cccnc3c2O)c1` (stereo unspecified), for which the GI50 was 3250 nM and the TGI was 14.3 µM.

Turning to `CNC(=O)c1cc(Oc2cccc3nc(NC(=O)Nc4ccc(F)cc4F)ccc23)ccn1`, the GI50 was 1830 nM and the TGI is above 50 µM.

Turning to `Cn1cc(-c2ccc3nnc(C(F)(F)c4ccc5ncccc5c4)n3n2)cn1`, the GI50 is 22500 nM and the TGI is above 100 µM.

In the case of `CCN(CC)CC(O)c1cc(-c2ccc(Cl)cc2)nc2cc(Cl)ccc12` (stereo unspecified), the GI50 is 1920 nM and the TGI amounted to 3.53 µM.

For `COc1ccc(Nc2ncccc2C(=O)NCc2cn(Cc3cccc(Oc4ccccc4)c3)nn2)c(OC)c1`, the GI50 is 770 nM.

Regarding `COc1cccc(/C=C2\CCc3ccccc3C2=O)c1`, the GI50 was 12600 nM and the TGI was found to be 29.3 µM.

Take `C=C(C)[C@@H]1CC[C@]2(C(=O)N3CCN(C)CC3)CC[C@]3(C)[C@H](CC[C@@H]4[C@@]5(C)CC[C@H](O)C(C)(C)[C@@H]5CC[C@]43C)[C@@H]12`: the GI50 was 1820 nM and the TGI worked out at 3.63 µM.

For the compound `COc1ccc(/C=C/C(=O)c2ccccc2)cc1OC`, the GI50 is 5250 nM and the TGI turned out to be 18.6 µM.

As for `CC/C(=C(/CC)c1ccc(O)cc1)c1ccc(O)cc1`, the GI50 was 2710 nM and the TGI is 15.1 µM.

In the case of `CCN(CC)CCNC(=O)C(Cl)=C1C(Cl)=C(Cl)C(Cl)=C1Cl`, the GI50 is 2080 nM and the TGI turned out to be 7.63 µM.

`COc1ccc2c(c1)C(=O)c1c-2c(OCCN2CCCCC2)nc2ccc(OC)cc12`: the GI50 is 392 nM and the TGI was found to be 2.49 µM.

`CS(=O)(=O)c1ccc(-c2cnc(NCc3ccco3)n3cnnc23)cc1`: the GI50 was 27000 nM and the TGI was above 100 µM.

`Clc1ccc(Nc2ncnc3c2sc2ncccc23)c(Cl)c1`: the GI50 was 54.8 nM and the TGI was 73.8 µM.

Turning to `Cc1cc2nc3c4cc([N+](=O)[O-])ccc4n(CCN(C)C)c3nc2cc1C`, the GI50 was 374 nM and the TGI amounted to 1.38 µM.

For `O=C(Nc1ccc(Cl)cc1)c1cc2ccccc2cc1OP(=O)(O)O`, the GI50 is 4280 nM and the TGI came out at 29.3 µM.

In the case of `COc1cc(OC)c(/C=C/C(=O)c2c(O)cc(OC)c(C3CCN(C)CC3)c2OC)c(OC)c1`, the GI50 was 1540 nM and the TGI was 3.03 µM.

Turning to `O=C1c2ccccc2-c2ccccc2C1(Cl)Cl`, the GI50 was 1740 nM and the TGI is 3.3 µM.
